Measured values reported in ChEMBL document CHEMBL4002559, “Micromonohalimanes A and B: Antibacterial Halimane-Type Diterpenoids from a Marine Micromonospora Species” (2016).
Converted amounts (≈) assume the structure as drawn. The source made the active and inactive calls. No cut-off for these calls is given here.

Experiments:
Staphylococcus aureus [1] = experiment: Antibacterial activity against methicillin-resistant Staphylococcus aureus ATCC 33591 after 18 hrs by dilution method; type: functional; conditions: ATCC 33591, 18 h
Staphylococcus aureus [2] = experiment: Bacteriostatic activity against methicillin-resistant Staphylococcus aureus ATCC 33591 by LB plate method; type: functional

Compound | MIC (Staphylococcus aureus [1]) | Activity (Staphylococcus aureus [2])
CC(=O)O[C@H](C[C@@]1(C)[C@@H]2CCCC(C)(C)C2=CC[C@@H]1C)[C@@]1(O)COC(=O)[C@@H]1O | > 200 µg/mL | –
CC(=O)O[C@H]1C(=O)O[C@H](C[C@@]2(C)[C@@H]3CCCC(C)(C)C3=CC[C@@H]2C)[C@]1(O)CCl | 40 µg/mL (≈ 96.9 µM) | Active
